System: Obese Fa/fa Zucker rats
Assay: Effect on food intake (food consumption) in obese Zucker rats, five days of oral treatment
Type: in vivo, rat
Conditions: daily for 5 days
Method: The synergistic effect of the combination of sibutramine and of a CB1 receptor antagonist on food intake was determined according to the following protocol:
Obese Fa/fa Zucker rats aged 7 weeks and originating from Iffa-Credo, France, were used in this study. The rats are housed in individual cages and weighed every day between 8 and 10 o'clock in the morning. The amount of food is also weighed each morning at the same time. This food (M20, Pietrement, France) is changed every day and the rats have free access thereto for 24 hours. All the rats are treated for a week with the vehicle (miglyol 812N and 0.5% methylcellulose/0.2% polysorbate 80) in two consecutive administrations. The rats are treated from the 8th day with the vehicle, the CB1 receptor antagonist (1-[bis(4-chlorophenyl)methyl]-3-[(3,5-difluorophenyl)-(methylsulfonyl)methylene]azetidine) or sibutramine by the oral route (see table below).
The sibutramine is dissolved in a 0.5% methylcellulose/0.2% polysorbate 80 solution and administered at a dose of 3 mg/kg; the CB1 receptor antagonist is dissolved in miglyol 812N (Hüls, Germany) at a dose of 0.6 mg/kg and the two products are administered under a volume of 1 ml/kg. Each group is composed of 12 to 14 animals. […]
The food consumption of each animal is measured every day. The results are expressed as mean amount of food consumed during the 5 days of treatment.

`CS(=O)(=O)C(=C1CN(C(c2ccc(Cl)cc2)c2ccc(Cl)cc2)C1)c1cc(F)cc(F)c1` [CB1 receptor antagonist, 1-[bis(4-chlorophenyl)methyl]-3-[(3,5-difluorophenyl)-(methylsulfonyl)methylene]azetidine] was tested, and the “Food consumption during the 5 days of treatment” value (CB1 receptor antagonist 0.6 mg/kg oral in miglyol (then methylcellulose/polysorbate vehicle), vehicles 25.52 ± 0.30, p < 0.01) was 24.00 ± 0.24 g.
In the case of `CC(C)CC(N(C)C)C1(c2ccc(Cl)cc2)CCC1` (centres unmarked) [sibutramine, N-{1-[1-(4-chloro-phenyl)cyclobutyl]-3-methylbutyl}-N,N-dimethylamine], the “Food consumption during the 5 days of treatment” value (sibutramine 3 mg/kg oral (after miglyol), mean amount of food consumed, vehicles 25.52 ± 0.30, p < 0.05) is reported as 24.60 ± 0.32 g.
